We go through seven compounds from US8318787B2, “Prodrugs of (3,5-bis(4-fluorophenyl)tetrahydro-1H-oxazolo[3,4-C]oxazol-7A-yl)methanol and derivatives thereof” (University of Kansas, priority 2005, dated 2012).

One may read the melting point as the temperature, or range, at which the solid turns liquid.

One series relates to primary cortical neurons. The experiment in a line: Neuroprotection of primary cortical neurons exposed to Aβ peptides (Live/Dead assay). The series is classed as cell-based. The following applies: Rattus norvegicus, Primary cortical neuron, Aβ25-35, 48 hours, read-out: EC50 (concentration that lead to a 50% increase in neuronal survival in the presence of the Aβ peptide). Here is the method:
This example illustrates the neuroprotective effects of TH-237A in neuronal cells after exposure to Aβ peptides. To prepare the primary neurons, dissociated cortical cell cultures were established from embryonic day 18 rat fetuses recovered from pregnant Sprague Dawley rats (Harlan Sprague Dawley, Inc., Indianapolis, Ind.) as described previously (Michaelis et al., 1994). Pups were delivered by cesarean section while the dam was anesthetized with pentobarbital (140 mg/kg, i.p.), and the brains were recovered according to National Institutes of Health-approved protocols. After the final precipitation step, neurons were suspended in fresh DMEM/F12 (Sigma Chemical Co. St. Louis, Mo.) with 10% fetal bovine serum (Atlanta Biologicals, Atlanta, Ga.) and plated at a density of 2.5×10^5 cells in 35 mm glass bottom microwell dishes (Mat-Tek Co., Ashland, Mass.), coated with poly-D-lysine. Serum-containing medium was removed after 24 hours, and the cells were maintained in serum-free DMEM/F12 containing the N2 supplements. […]
After five days in culture, the primary neurons were exposed to either Aβ25-35 or Aβ1-42 in the presence or absence of concentrations of TH-237A ranging from 0.5 to 60 nM. […] Each batch of Aβ peptide was analyzed for β-sheet formation by circular dichroism, but no effort was made to separate oligomers from fibrils. […]
The effects of the Aβ peptides and TH-237A were primarily determined by monitoring neuronal cell survival using the Live/Dead assay as previously described (Michaelis et al., 1998; Michaelis et al., 2005). […] The number of viable (green) and dead (red) neurons was determined by counting the cells, and this was done in 6-12 microscopic fields per culture dish in duplicate dishes for each treatment. […] Thus, approximately 1500 neurons were scored under each treatment condition. The fraction of viable cells in each field was calculated based on the total number of cells counted in each field. Raw data from each experiment were combined and the significance of differences between cultures exposed to various treatments was determined using Student's t test. […]

Series [1] in a line: Oral absorption of parent compound and prodrug (plasma levels). Format: in vivo. The protocol:
The prodrug compound (3,5-bis(4-fluorophenyl)tetrahydro-1H-oxazolo[3,4-C]oxazol-7a-yl)methanol phosphate was studied for oral absorption. A formulation of (3,5-bis(4-fluorophenyl)tetrahydro-1H-oxazolo[3,4-C]oxazol-7a-yl)methanol was prepared into a suspension and into a composition with Captisol, and the prodrug thereof was formulated into an aqueous solution. Oral absorption behavior of the parent compound is depicted in FIG. 8. As previously mentioned, the systemic exposure of the parent compound following oral administration of the parent compound as a suspension is limited compared to a solution of the parent compound administered in Captisol. The systemic exposure of the prodrug compound following oral administration of an aqueous solution of the prodrug compound is depicted in FIG. 9.

Structures are written as SMILES. pEC50: −log10 of the molar value.

Take `OCC12CO[C@H](c3ccc(F)cc3)N1[C@@H](c1ccc(F)cc1)OC2` (racemic) [TH-236B, (3R,5R) and (3S,5S) (3,5-bis(4-fluorophenyl)tetrahydro-1H-oxazolo[3,4-c]oxazol-7a-yl)methanol]: the pEC50 in the series with primary cortical neurons is ~7.40. `OCC12CO[C@H](c3ccc(C(F)(F)F)cc3)N1[C@@H](c1ccc(C(F)(F)F)cc1)OC2` (racemic) [TH-242B, (3R,5R) and (3S,5S) (3,5-bis(4-trifluoromethylphenyl)tetrahydro-1H-oxazolo[3,4-c]oxazol-7a-yl)methanol] registered a melting point of 120 °C. Take `OCC1(CO)COC(c2ccc(F)cc2)N1` (racemic) [TH-OPEN, (R/S)-(2-(4-fluorophenyl)oxazolidine-4,4-diyl)dimethanol]: the melting point was 89 °C. The pEC50 in the series on primary cortical neurons is ~7.30. For the compound `OCC1(CO)COC(c2ccc(C(F)(F)F)cc2)N1` (racemic) [TH-OPENTFM, (R/S)-(2-(4-(trifluoromethyl)phenyl)oxazolidine-4,4-diyl)dimethanol], the melting point turned out to be 98 °C. Regarding `O=P([O-])([O-])OCC12COC(c3ccc(F)cc3)N1C(c1ccc(F)cc1)OC2.[Na+].[Na+]` (centres unmarked) [(3,5-bis(4-fluorophenyl)tetrahydro-1H-oxazolo[3,4-C]oxazol-7a-yl)methanol phosphate], the “systemic exposure of drug from aqueous prodrug solution relative to Captisol solution of the parent compound” value in series [1] (aqueous solution of prodrug) is reported as “equivalent or better”. For the compound `OCC12COC(c3ccc(F)cc3)N1C(c1ccc(F)cc1)OC2` (centres unmarked) [(3,5-bis(4-fluorophenyl)tetrahydro-1H-oxazolo[3,4-C]oxazol-7a-yl)methanol], in series [1] (suspension), the “systemic exposure after oral administration as a suspension compared to solution in Captisol” value is “limited”. Compound `OC[C@]12CO[C@H](c3ccc(C(F)(F)F)cc3)N1[C@H](c1ccc(C(F)(F)F)cc1)OC2` [TH-242A] had a melting point of 102 °C.
